The text below walks through data of PubChem BioAssay AID1259408 (Genetic Toxicology Data Bank (GENE-TOX), 2018).

The subject of this data set is GENE-TOX genotoxicity assays, various organisms and cells. In words: GENE-TOX mutagenicity studies. The following applies: for call: Assay Type: In vivo carcinogenicity studies.
Setting [1] is: Species/Cell Type: Human lymphocytes, Assay Type: Sister-chromatid exchange (SCE) in vitro, Assay Code: SCLT, Evaluation Type: Evaluation B (Post-1980).
The mark [2] stands for this setting: Species/Cell Type: Human, Assay Type: Sister-chromatid exchange (SCE) in vitro, Assay Code: SC1T, Evaluation Type: Evaluation B (Post-1980).
The mark [3] stands for this setting: Species/Cell Type: Nonhuman, Assay Type: Sister-chromatid exchange (SCE) in vitro, Assay Code: SC2+, Evaluation Type: Evaluation B (Post-1980).
The mark [4] stands for this setting: Species/Cell Type: Salmonella typhimurium (one or more of the five standard strains: TA98, TA100, TA1535, TA1537, and TA1538), Assay Type: Histidine reverse gene mutation, Ames assay, Assay Code: SAL+, Evaluation Type: Evaluation A (Pre-1980).
Setting [5] is: Species/Cell Type: Allium cepa, Assay Type: Chromosome aberrations, Assay Code: ALC+, Evaluation Type: Evaluation A (Pre-1980).
Setting [6] is: Species/Cell Type: Drosophila melanogaster, Assay Type: Aneuploidy, whole sex chromosome loss, chromosome aberrations, Assay Code: DAC-M, Evaluation Type: Evaluation A (Pre-1980).
[7] abbreviates: Species/Cell Type: Mouse, Sex: Male, Assay Type: Sperm morphology, Assay Code: SPI-, Evaluation Type: Evaluation A (Pre-1980).
[8] abbreviates: Species/Cell Type: Salmonella typhimurium (one or more of the five standard strains: TA98, TA100, TA1535, TA1537, and TA1538), Assay Type: Histidine reverse gene mutation, Ames assay, Assay Code: SALT, Evaluation Type: Evaluation A (Pre-1980).
The mark [9] stands for this setting: Species/Cell Type: Nonhuman, Assay Type: Sister-chromatid exchange (SCE) in vitro, Assay Code: SC2+D, Dose Response: With dose response, Evaluation Type: Evaluation B (Post-1980).
Setting [10] is: Species/Cell Type: Syrian hamster embryo (SHE) cells, Assay Type: Cell transformation, clonal assay, Assay Code: CTC+, Evaluation Type: Evaluation A (Pre-1980).
The mark [11] stands for this setting: Species/Cell Type: Nonhuman, Assay Code: CCG+, Evaluation Type: Evaluation A (Pre-1980).

Molecules are shown by their SMILES. Activity calls are given as the source filed them. The rule behind the calls is not given here.

Regarding `Cc1cccc(O)c1`, the mutagenic call (Species/Cell Type: Allium cepa, Assay Type: Chromosome aberrations, Assay Code: ALCT, Evaluation Type: Evaluation A (Pre-1980)) was “no conclusion”; the mutagenic call under setting [1] is “no conclusion”; the mutagenic call (Species/Cell Type: Human, Assay Type: Sister-chromatid exchange (SCE) in vitro, Assay Code: SC1+, Evaluation Type: Evaluation B (Post-1980)) is “active; positive”; the mutagenic call (Species/Cell Type: Nonhuman, Assay Type: Sister-chromatid exchange (SCE) in vivo, Assay Code: SC3T, Evaluation Type: Evaluation B (Post-1980)) was “no conclusion”.

Regarding `CCc1ccc(O)cc1`, the mutagenic call is, setting by setting: under setting [1], “no conclusion”; under setting [2], “no conclusion”.

`C`: the mutagenic call under setting [3] is “active; positive”.

Turning to `CC(C(=O)O)c1ccc(N2CC=CC2)c(Cl)c1` (stereo not given), where the note is “Species/Cell Type: Human lymphocytes, Assay Type: Sister-chromatid exchange (SCE) in vivo, Assay Code: SCY+, Evaluation Type: Evaluation B (Post-1980)”, the mutagenic call was “active; positive”.

For `c1cc2c(cc1CC1CO1)OCO2` (stereo not given), under setting [4], the mutagenic call is “active; positive”.

For `O=[N+]([O-])c1ccc2ccc3c4ccccc4cc4ccc1c2c43`, for the setting “Species/Cell Type: Chinese hamster ovary (CHO) cells, Assay Type: Forward gene mutation at the HPRT locus, Assay Code: CHO+*, Activation: With metabolic activation, Evaluation Type: Evaluation B (Post-1980)”, the mutagenic call is “active; positive”.

Regarding `NCCNc1cccc2ccccc12`, the call (Species/Cell Type: Nonhuman, Assay Code: CCG-, Evaluation Type: Evaluation A (Pre-1980)) is “inactive; negative”.

Turning to `O=C1CCC(N2C(=O)c3ccccc3C2=O)C(=O)N1` (stereo not given), the mutagenic call by setting is: under setting [5], “active; positive”; (Species/Cell Type: Drosophila melanogaster, Assay Type: Aneuploidy, partial sex chromosome loss, chromosome aberrations, Assay Code: DAP-M, Evaluation Type: Evaluation A (Pre-1980)) “inactive; negative”; (Species/Cell Type: Drosophila melanogaster, Assay Type: Aneuploidy, sex chromosome gain, chromosome aberrations, Assay Code: DAG-M, Evaluation Type: Evaluation A (Pre-1980)) “inactive; negative”; under setting [6], “inactive; negative”; under setting [7], “inactive; negative”; (Species/Cell Type: Salmonella typhimurium, Assay Type: Forward and reverse gene mutation, host-mediated assay, Assay Code: HMA-, Evaluation Type: Evaluation A (Pre-1980)) “inactive; negative”. For the same compound, the mutagenic call (Species/Cell Type: Vicia faba, Assay Type: Chromosome aberrations, Assay Code: VIC+, Evaluation Type: Evaluation A (Pre-1980)) is “active; positive”.

Take `CCOP(=O)(N=C1SCC(C)S1)OCC` (stereo not given): the mutagenic call (Species/Cell Type: Hordeum vulgare (barley), Assay Type: Chromosome aberrations, Assay Code: HOC+D, Dose Response: With dose response, Evaluation Type: Evaluation A (Pre-1980)) was “active; positive”.

Turning to `Cn1sccc1=O`, the mutagenic call (Species/Cell Type: Mammalian polychromatic erythrocytes, Assay Type: Micronucleus test, chromosome aberrations, Assay Code: MNT-, Evaluation Type: Evaluation B (Post-1980)) is “inactive; negative”.

On to `CCCCCC(=O)C(CCCC)c1oc(=O)c(CCCC)c(O)c1CCCC` (stereo not given), for which the mutagenic call is “no conclusion” under setting [1] and “no conclusion” under setting [2].

Regarding `O=C(Nc1ccc(Br)cc1)c1cc(Br)cc(Br)c1O`, the mutagenic call (Species/Cell Type: Mammalian polychromatic erythrocytes, Assay Type: Micronucleus test, chromosome aberrations, Assay Code: MNTT, Evaluation Type: Evaluation B (Post-1980)) is “no conclusion”.

For `CC[C@@]1(O)C[C@H](O[C@H]2C[C@H](NC)[C@H](O[C@H]3C[C@H](O)[C@H](O[C@H]4CCC(=O)[C@H](C)O4)[C@H](C)O3)[C@H](C)O2)c2c(cc3c(c2O)C(=O)c2c(O)cccc2C3=O)[C@H]1C(=O)OC`, under setting [8], the mutagenic call is recorded as “no conclusion”.

Turning to `O=C(OCC1=CCN2CC[C@@H](OC(=O)c3ccc4c(c3)OCO4)[C@@H]12)c1ccc2c(c1)OCO2`, under setting [5], the mutagenic call is “active; positive”.

Consider `O=C1CCc2c1c(=O)oc1c3c(cc(O)c21)O[C@H]1OC=C[C@@H]31`, for which the mutagenic call under setting [8] is “no conclusion”.

Take `c1ccc2c(c1)-c1cc3ccc4ccccc4c3cc1C1OC21` (stereo not given): the mutagenic call by setting is: (Species/Cell Type: Chinese hamster lung (V79) cells, Assay Type: Forward gene mutation at the HPRT or ouabain locus, Assay Code: V79+, Evaluation Type: Evaluation A (Pre-1980)) “active; positive”; (Species/Cell Type: Human diploid fibroblasts, Assay Type: Unscheduled DNA synthesis (UDS) in vitro, DNA effects, Assay Code: UDHT, Evaluation Type: Evaluation A (Pre-1980)) “no conclusion”; (Species/Cell Type: Mouse prostate cells, Assay Type: Cell transformation, Assay Code: CTM+D, Dose Response: With dose response, Evaluation Type: Evaluation A (Pre-1980)) “active; positive”; under setting [9], “active; positive”; under setting [4], “active; positive”; under setting [10], “active; positive”. The call (Species/Cell Type: Nonhuman, Assay Code: CCG+L, Evaluation Type: Evaluation A (Pre-1980)) was “active; positive”.

Regarding `CCOP(=O)(OCC)Oc1cc(C)nc(C(C)C)n1`, the mutagenic call under setting [9] was “active; positive”.

Consider `C#CC(C)N(C(=O)CCl)c1ccccc1` (stereo not given), for which the mutagenic call (Species/Cell Type: Saccharomyces cerevisiae, Assay Type: Mitotic recombination or gene conversion, Assay Code: YEC-, Evaluation Type: Evaluation A (Pre-1980)) was “inactive; negative”.

In the case of `O=c1cnn([C@@H]2O[C@H](CO)[C@@H](O)[C@H]2O)c(=O)[nH]1`, the mutagenic call reads like this: (Species/Cell Type: Drosophila melanogaster, Assay Type: Sex-linked recessive lethal gene mutation, Assay Code: SRLT, Evaluation Type: Evaluation A (Pre-1980)) “no conclusion”; (Species/Cell Type: Rabbit, Sex: Male, Assay Type: Sperm morphology, Assay Code: SPR+, Evaluation Type: Evaluation A (Pre-1980)) “active; positive”.

`CCOC(=O)Nc1ncc(-c2ccc(Cl)cc2)[nH]1`: the mutagenic call (Species/Cell Type: Salmonella typhimurium, Assay Type: Forward and reverse gene mutation, host-mediated assay, Assay Code: HMAT, Evaluation Type: Evaluation A (Pre-1980)) is reported as “no conclusion”.

For the compound `O=C(NC(=O)c1c(F)cccc1F)Nc1ccc(Cl)cc1`, the mutagenic call (Species/Cell Type: Mammalian polychromatic erythrocytes, Assay Type: Micronucleus test, chromosome aberrations, Assay Code: MNTT, Evaluation Type: Evaluation A (Pre-1980)) is on record as “no conclusion”; the mutagenic call (Species/Cell Type: Mouse lymphoma (L5178Y) cells, Assay Type: Forward gene mutation at the thymidine kinase (TK) locus, chromosome aberrations, Assay Code: L51T, Evaluation Type: Evaluation A (Pre-1980)) is “no conclusion”; the mutagenic call (Species/Cell Type: Salmonella typhimurium (one or more of the five standard strains: TA98, TA100, TA1535, TA1537, and TA1538), Assay Type: Histidine reverse gene mutation, Ames assay, Assay Code: SAL-, Evaluation Type: Evaluation A (Pre-1980)) was “inactive; negative”.

`CCCCOc1ccc(CC(=O)NOC(C)=O)cc1`: under setting [3], the mutagenic call was “active; positive”.

Regarding `CC[C@H](C)[C@@H]1NC(=O)CNC(=O)[C@@H]2Cc3c([nH]c4cc(O)ccc34)S(=O)C[C@H](NC(=O)CNC1=O)C(=O)N[C@@H](CC(N)=O)C(=O)N1C[C@H](O)C[C@H]1C(=O)N[C@@H]([C@@H](C)[C@@H](O)CO)C(=O)N2` (stereo not given in full), for the setting “Species/Cell Type: Drosophila melanogaster, Assay Type: Aneuploidy, whole sex chromosome loss, chromosome aberrations, Assay Code: DACT, Evaluation Type: Evaluation A (Pre-1980)”, the mutagenic call was “no conclusion”.

With `[N-]=[N+]=CC(=O)OC[C@H](N)C(=O)O`, the mutagenic call reads like this: (Species/Cell Type: Escherichia coli WP2, Assay Type: Tryptophan reverse gene mutation, Assay Code: WP2+, Evaluation Type: Evaluation A (Pre-1980)) “active; positive”; (Species/Cell Type: Escherichia coli polA (W3119 vs P3478), Assay Type: Rec-assay, DNA effects (bacterial DNA repair), Assay Code: RE1+, Evaluation Type: Evaluation A (Pre-1980)) “active; positive”; under setting [9], “active; positive”; under setting [4], “active; positive”; under setting [10], “active; positive”. Also, the call under setting [11] is “active; positive”.

Regarding `Nc1cccc(Cl)c1`, under setting [7], the mutagenic call was “inactive; negative”.

As to `CN(O)C(=O)c1ccc2ccccc2c1`, the mutagenic call under setting [3] was “active; positive”.

As for `Nc1ncnc2c1ncn2[C@@H]1O[C@H](COP(=O)(O)OP(=O)(O)OP(=O)(O)O)[C@@H](O)[C@H]1O`, the mutagenic call under setting [6] was “inactive; negative”.

On to `Cc1ccc(N2CCN(C)CC2)c2c(=O)c3ccc(Cl)cc3sc12`, for which the mutagenic call under setting [8] was “no conclusion”.

In the case of `C[C@]12CC[C@@H]3c4ccc(O)cc4CC[C@H]3[C@@H]1CC[C@@H]2O`, the mutagenic call by setting is: (Species/Cell Type: Human lymphocytes, Assay Type: Sister-chromatid exchange (SCE) in vitro, Assay Code: SCL-*, Activation: With metabolic activation, Evaluation Type: Evaluation B (Post-1980)) “inactive; negative”; (Species/Cell Type: Human lymphocytes, Assay Type: Sister-chromatid exchange (SCE) in vitro, Assay Code: SCL-, Evaluation Type: Evaluation B (Post-1980)) “inactive; negative”; (Species/Cell Type: Human, Assay Type: Sister-chromatid exchange (SCE) in vitro, Assay Code: SC1-, Evaluation Type: Evaluation B (Post-1980)) “inactive; negative”; (Species/Cell Type: Mouse, Sex: Male, Assay Type: Sperm morphology, Assay Code: SPI+, Evaluation Type: Evaluation A (Pre-1980)) “active; positive”; (Species/Cell Type: Nonhuman, Assay Type: Sister-chromatid exchange (SCE) in vitro, Assay Code: SC2T, Evaluation Type: Evaluation B (Post-1980)) “no conclusion”; (Species/Cell Type: Rat, Sex: Male, Assay Type: Sperm morphology, Assay Code: SPA+, Evaluation Type: Evaluation A (Pre-1980)) “active; positive”. Moreover, the call under setting [11] is “active; positive”.
